According to patent US11077090B2, “Compounds and compositions and uses thereof” (Sunovion Pharmaceuticals Inc., priority 2016, dated 2021):
Like-named read-outs stand apart in the source and are kept apart here.

Tested on: compound-treated mice
Assay: Neuropharmacological assay (SmartCube): behavioral activity signature and minimal effective dose
Type: in vivo
Conditions: for minimal effective dose: Mus musculus, ip; for AD: ADHD (probability of activity signature) / AG: analgesic (probability of activity signature) / AX: anxiolytic (probability of activity signature) / CE: cognitive enhancer (probability of activity signature) / DP: anti-depressant (probability of activity signature) / MS: mood stabilizer (probability of activity signature) / PS: anti-psychotic (probability of activity signature) / SD: sedative hypnotic (probability of activity signature) / UN: uncharacterized CNS activity (probability of activity signature): i.p. 15 min before test, most efficacious dose(s)
Source text: Neurosci. 2011 Sep. 9; 5:103 (doi: 10.3389/fnins.2011.00103) (“Roberds”). As reported in Roberds, because psychiatric diseases generally result from disorders of cell-cell communication or circuitry, intact systems are useful in detecting improvement in disease-relevant endpoints. These endpoints are typically behavioral in nature, often requiring human observation and interpretation. To facilitate testing of multiple compounds for behavioral effects relevant to psychiatric disease, PsychoGenics, Inc. (Tarrytown, N.Y., “PGI”) developed SmartCube™, an automated system in which behaviors of compound-treated mice are captured by digital video and analyzed with computer algorithms. (D. Brunner et al., Drug Discov. Today 2002, 7:S107-S112). PGI Analytical Systems uses data from SmartCube™ to compare the behavioral signature of a test compound to a database of behavioral signatures obtained using a large set of diverse reference compounds. (The composition of the database as well as validation of the method is further described in Roberds). In this way, the neuropharmacological effects of a test compound can be predicted by similarity to major classes of compounds, such as antipsychotics, anxiolytics and antidepressants.
The SmartCube™ system produces an activity signature indicating the probability that the activity of the test compound at the administered dose matches a given class of neuropharmacological agents. (See, e.g., Roberds, FIGS. 2 and 3). The test compound is simultaneously compared against multiple classes of agents; thus, a separate probability is generated for each behavioral effect measured (e.g., anxiolytic activity, analgesic activity, etc.). In the table below, these probabilities are reported for each behavioral effect measured as follows:
where LOQ is the limit of quantification.
Provided compounds were dissolved in a mixture of Pharmasolve™ (N-methyl-2-pyrrolidone), polyethylene glycol and propylene glycol, and were injected i.p. 15 min. before the behavioral test. For each compound, injections were administered at 3 different doses. For each behavioral effect measured, results for the most efficacious dose(s) are presented. In the table below, DP: anti-depressant; AX: anxiolytic; SD: sedative hypnotic; PS: anti-psychotic; MS: mood stabilizer; AD: ADHD; CE: cognitive enhancer; AG: analgesic; UN: uncharacterized CNS activity.
The potency of many of the compounds in the table was also determined in the SmartCube™ system. Test compounds were routinely examined at dose levels of 0.3, 1, 3, 10 and 30 mg per kg (mpk), although the dose range was increased or decreased if necessary to obtain a full dose response curve. A compound's minimal effective dose (MED) is a measure of the compounds potency. The MED was defined as the dose (in mpk) having 50% or more total activity in SmartCube.

[1] = MED = dose having 50% or more total activity, read-out: Potency: minimal effective dose (MED)
[2] = MED = dose having 50% or more total activity, read-out: Potency: minimal effective dose (MED), binned

| SMILES | minimal effective dose [1] [mg/kg] | AD: ADHD (probability of activity signature) | AG: analgesic (probability of activity signature) | AX: anxiolytic (probability of activity signature) | CE: cognitive enhancer (probability of activity signature) | DP: anti-depressant (probability of activity signature) | MS: mood stabilizer (probability of activity signature) | PS: anti-psychotic (probability of activity signature) | SD: sedative hypnotic (probability of activity signature) | UN: uncharacterized CNS activity (probability of activity signature) | AX: anxiolytic (probability of activity signature) (hydrochloride) | DP: anti-depressant (probability of activity signature) (hydrochloride) | PS: anti-psychotic (probability of activity signature) (hydrochloride) | SD: sedative hypnotic (probability of activity signature) (hydrochloride) | UN: uncharacterized CNS activity (probability of activity signature) (hydrochloride) | minimal effective dose [2] [mg/kg] | Potency: minimal effective dose (MED), binned (MED = dose having 50% or more total activity) |
| --- | --- | --- | --- | --- | --- | --- | --- | --- | --- | --- | --- | --- | --- | --- | --- | --- | --- |
| Cl.NC1COCc2ccc(C(F)(F)F)cc21 (stereo not drawn) [Example 9, 6-Trifluoromethylisochroman-4-amine hydrochloride] | 3 to 10 | + (LOQ ≤ + <5%) | ++ (5% ≤ ++ <25%) | ++ (5% ≤ ++ <25%) | ++ (5% ≤ ++ <25%) | ++ (5% ≤ ++ <25%) | + (LOQ ≤ + <5%) | ++ (5% ≤ ++ <25%) | + (LOQ ≤ + <5%) | +++ (25% ≤ +++ <50%) | – | – | – | – | – | – | – |
| Cl.NC1COCc2ccc3c(c21)C1CCC3C1 (stereo not drawn) [Example 51, 2,4,7,8,9,10-Hexahydro-1H-7,10-methanobenzo[f]isochromen-1-amine hydrochloride] | 3 to 10 | + (LOQ ≤ + <5%) | ++ (5% ≤ ++ <25%) | – | ++ (5% ≤ ++ <25%) | – | + (LOQ ≤ + <5%) | – | – | – | ++ (5% ≤ ++ <25%) | ++ (5% ≤ ++ <25%) | ++ (5% ≤ ++ <25%) | + (LOQ ≤ + <5%) | ++++ (50% ≤ ++++) | – | – |
| Cc1ccc2c(c1)[C@@H](N)[C@@H](C)OC2 (single isomer, unassigned) [Example 158] | – | + (LOQ ≤ + <5%) | ++ (5% ≤ ++ <25%) | ++ (5% ≤ ++ <25%) | ++ (5% ≤ ++ <25%) | ++ (5% ≤ ++ <25%) | + (LOQ ≤ + <5%) | +++ (25% ≤ +++ <50%) | ++ (5% ≤ ++ <25%) | ++ (5% ≤ ++ <25%) | – | – | – | – | – | 3 to 10 | – |
| Cc1cccc2c1COCCC2N.Cl (stereo not drawn) [Example 37] | 10 to 30 | + (LOQ ≤ + <5%) | ++ (5% ≤ ++ <25%) | ++ (5% ≤ ++ <25%) | ++ (5% ≤ ++ <25%) | + (LOQ ≤ + <5%) | + (LOQ ≤ + <5%) | ++ (5% ≤ ++ <25%) | + (LOQ ≤ + <5%) | +++ (25% ≤ +++ <50%) | – | – | – | – | – | – | – |
| COc1ccc2c(c1)CO[C@H](C)[C@H]2N.Cl [Example 232] | – | + (LOQ ≤ + <5%) | ++ (5% ≤ ++ <25%) | ++ (5% ≤ ++ <25%) | + (LOQ ≤ + <5%) | + (LOQ ≤ + <5%) | + (LOQ ≤ + <5%) | + (LOQ ≤ + <5%) | + (LOQ ≤ + <5%) | ++ (5% ≤ ++ <25%) | – | – | – | – | – | 10 to 30 | – |
| Cl.NC1COCc2ccc3ncccc3c21 (stereo not drawn) [Example 15] | > 30 | + (LOQ ≤ + <5%) | + (LOQ ≤ + <5%) | + (LOQ ≤ + <5%) | + (LOQ ≤ + <5%) | + (LOQ ≤ + <5%) | + (LOQ ≤ + <5%) | + (LOQ ≤ + <5%) | + (LOQ ≤ + <5%) | + (LOQ ≤ + <5%) | – | – | – | – | – | – | – |
| CNC1CCOCc2ccc(C)cc21.Cl (stereo not drawn) [Example 59] | 3 to 10 | + (LOQ ≤ + <5%) | +++ (25% ≤ +++ <50%) | ++ (5% ≤ ++ <25%) | ++ (5% ≤ ++ <25%) | ++ (5% ≤ ++ <25%) | + (LOQ ≤ + <5%) | ++ (5% ≤ ++ <25%) | ++ (5% ≤ ++ <25%) | +++ (25% ≤ +++ <50%) | – | – | – | – | – | – | – |
| C[C@@H]1OCc2ccc(F)cc2[C@H]1N [Example 184] | – | + (LOQ ≤ + <5%) | + (LOQ ≤ + <5%) | ++ (5% ≤ ++ <25%) | ++ (5% ≤ ++ <25%) | ++ (5% ≤ ++ <25%) | + (LOQ ≤ + <5%) | ++ (5% ≤ ++ <25%) | + (LOQ ≤ + <5%) | ++++ (50% ≤ ++++) | – | – | – | – | – | – | A (≤3 mpk) |
| C#CCN[C@@H]1COCc2ccccc21.Cl [Example 263] | – | + (LOQ ≤ + <5%) | + (LOQ ≤ + <5%) | + (LOQ ≤ + <5%) | + (LOQ ≤ + <5%) | + (LOQ ≤ + <5%) | + (LOQ ≤ + <5%) | + (LOQ ≤ + <5%) | ++ (5% ≤ ++ <25%) | + (LOQ ≤ + <5%) | – | – | – | – | – | < 3 | – |
| C#CCN[C@@H]1c2ccccc2CO[C@H]1C.Cl [Example 267] | – | + (LOQ ≤ + <5%) | + (LOQ ≤ + <5%) | + (LOQ ≤ + <5%) | + (LOQ ≤ + <5%) | ++ (5% ≤ ++ <25%) | ++ (5% ≤ ++ <25%) | + (LOQ ≤ + <5%) | ++ (5% ≤ ++ <25%) | ++ (5% ≤ ++ <25%) | – | – | – | – | – | < 3 | – |
| C[C@@H]1OCc2ccc(C(F)(F)F)cc2[C@@H]1N.Cl [Example 228] | – | + (LOQ ≤ + <5%) | ++ (5% ≤ ++ <25%) | ++ (5% ≤ ++ <25%) | + (LOQ ≤ + <5%) | ++ (5% ≤ ++ <25%) | + (LOQ ≤ + <5%) | ++ (5% ≤ ++ <25%) | + (LOQ ≤ + <5%) | +++ (25% ≤ +++ <50%) | – | – | – | – | – | 10 to 30 | – |
| Cc1ccc(Cl)c2c1[C@H](N)[C@H](C)OC2.Cl [Example 225] | – | + (LOQ ≤ + <5%) | ++ (5% ≤ ++ <25%) | ++ (5% ≤ ++ <25%) | ++ (5% ≤ ++ <25%) | ++ (5% ≤ ++ <25%) | + (LOQ ≤ + <5%) | ++ (5% ≤ ++ <25%) | ++ (5% ≤ ++ <25%) | ++++ (50% ≤ ++++) | – | – | – | – | – | 3 to 10 | – |
